Common to all, as to assay: HPLC initial rates, Michaelis-Menten fit
One data set deals with T1, HFM-RhaC.
T1 construct: recombinant in E. coli BL21(DE3), Ni-NTA purified
The format is biochemical, metagenome: human feces. The conditions noted are these: 50 mM sodium phosphate pH 6.0, 37 °C, 5 min. From the text:
HPLC initial rates, Michaelis-Menten fit on HFM-RhaC

The test system of another data set is T2, HFM-Rha78.
T2 construct: recombinant in E. coli BL21(DE3), Ni-NTA purified
The format is biochemical, metagenome: human feces. To be noted: 50 mM sodium phosphate pH 6.5, 37 °C, 5 min. From the text:
HPLC initial rates, Michaelis-Menten fit on HFM-Rha78

A further data set relates to T3, HFM-RhaA.
T3 construct: recombinant in E. coli BL21(DE3), Ni-NTA purified; catalytic residues Glu448 (acid) and Glu715 (base); AlphaFold2 model said to be in UniProt
The format is biochemical, metagenome: human feces. The conditions noted are these: 50 mM sodium phosphate pH 6.0, 37 °C, 5 min. From the text: HPLC initial rates, Michaelis-Menten fit on HFM-RhaA

Substrate in data set [1]: COc1ccc([C@@H]2CC(=O)c3c(O)cc(O[C@@H]4O[C@H](CO[C@@H]5O[C@@H](C)[C@H](O)[C@@H](O)[C@H]5O)[C@@H](O)[C@H](O)[C@H]4O)cc3O2)cc1O
It counts as biochemical, Bacteroides thetaiotaomicron. The conditions noted are these: 50 mM sodium phosphate pH 6.5, 37 °C, 5 min. The source says:
(§1) HPLC initial rates, Michaelis-Menten fit on BtRha78A

Substrate in data set [2]: C[C@@H]1O[C@@H](OC[C@H]2O[C@@H](Oc3c(-c4ccc(O)c(O)c4)oc4cc(O)cc(O)c4c3=O)[C@H](O)[C@@H](O)[C@@H]2O)[C@H](O)[C@H](O)[C@H]1O
It counts as biochemical, Bacteroides thetaiotaomicron. The conditions noted are these: 50 mM sodium phosphate pH 6.5, 37 °C, 5 min.
Source text: as §1

We go through five molecules from PMC11901676, “Substrate Selectivities of GH78 α-L-Rhamnosidases from Human Gut Bacteria on Dietary Flavonoid Glycosides” (Molecules, 2025).

A word on the Km: it is the concentration of substrate that gives half-maximal velocity. As a reminder, the kcat is the number of substrate molecules converted per active site and unit of time at saturation. In general, kcat/Km refers to the turnover number divided by the Michaelis constant.

Take `COc1ccc([C@@H]2CC(=O)c3c(O)cc(O[C@@H]4O[C@H](CO[C@@H]5O[C@@H](C)[C@H](O)[C@@H](O)[C@H]5O)[C@@H](O)[C@H](O)[C@H]4O)cc3O2)cc1O` [Hesperidin]: the Km in the data set on HFM-RhaC came to 2160 µM.

Take `C[C@@H]1O[C@@H](O[C@H]2[C@H](Oc3cc(O)c4c(c3)O[C@H](c3ccc(O)cc3)CC4=O)O[C@H](CO)[C@@H](O)[C@@H]2O)[C@H](O)[C@H](O)[C@H]1O` [Naringin]: the values for the Km with HFM-RhaC, with HFM-Rha78 and with HFM-RhaA were 2290 µM, 5970 µM and 1920 µM, respectively.

For `COc1ccc([C@@H]2CC(=O)c3c(O)cc(O[C@@H]4O[C@H](CO)[C@@H](O)[C@H](O)[C@H]4O[C@@H]4O[C@@H](C)[C@H](O)[C@@H](O)[C@H]4O)cc3O2)cc1O` [Neohesperidin], the Km in the data set with HFM-RhaC worked out at 3250 µM; with HFM-Rha78 it was 3970 µM; with HFM-RhaA it was 530 µM.

For the molecule `C[C@@H]1O[C@@H](OC[C@H]2O[C@@H](Oc3c(-c4ccc(O)c(O)c4)oc4cc(O)cc(O)c4c3=O)[C@H](O)[C@@H](O)[C@@H]2O)[C@H](O)[C@H](O)[C@H]1O` [Rutin], the Michaelis constant (Km) in the data set on HFM-RhaC stood at 5050 µM; in the data set on HFM-RhaA it was 1240 µM.

B1: BtRha78A (Bacteroides thetaiotaomicron VPI-5482) (protein)
chain: MILLGALSLASSTFAQTWIWYPGDYEIWLGNQMNNRRTERGAFFPPFWKTDSHYVVVEFSKVLNLSEPEEVFIAAEGTYNVKLDGKLQFGMPETLLLPAGKHSLNIKVWNQATPPTIYVKGKTVNSDSSWRVTYEDKEWIDESGKASDTSATIYMDAGCWNFDGATQRPSQFSLMREPQQPVAKTEQPEGGILYDFGKETFGFITLKNLSGKGKIDLYYGESPEEAKDKAYCETLDKLLLEPGQITDLAIRSTSPLHHSDNEYTLENSKAFRYVYITHEPEVQIGEVSMQYEYLPEEYRGNFRCNDEELNCIWEVGAYTMHLTTREFFIDGIKRDRWVWSGDAIQSYLMNYYLFFDSESVKRTIWLLRGKDPVTSHSNTIMDYTFYWFLSVYDYYMYSGDRHFVNQLYPRMQTMMDYVLGRTNKNGMVEGMSGDWVFVDWADGYLDKKGELSFEQVLFCRSLETMALCADLVGDKDGQQKYEKLASALKAKLEPTFWNNQKQAFVHNCVDGRQSDAVTRYANMFSVFFDYLNADKQQAIKQSVLLNDEILKITTPYMRFYELEALCALGEQETVMKEMKAYWGGMLKAGATSFWEKYNPEESGTQHLAMYGRPYGKSLCHAWGASPIYLLGKYYLGVKPTKEGYKEFAVSPVLGGLKWMEGTVPTPNGDIHVYMDNKTIKVKATEGKGYLTIQSRRQPKANMGTVEKVSEGVWRLWIDSPEERIVTYRL
notes: recombinant in E. coli BL21(DE3), Ni-NTA purified
With B1, in data set [1], the Km turned out to be 2780 µM, the kcat turned out to be 8.73 s⁻¹ and the kcat/Km is 3140 M⁻¹ s⁻¹. Moreover, in data set [2], the Km amounted to 2380 µM, the kcat was 0.47 s⁻¹ and the catalytic efficiency (kcat/Km) is 200 M⁻¹ s⁻¹.
